The results in this text go back to US20240374739A1, “BILE ACID CONJUGATE” (Curtin University, priority 2021, published 2024).

The subject of assay [1] is Neurodegenerated cells (Alzheimer's disease model). In words: Greiss (nitric oxide) assay, Alzheimer's disease model. It is filed as cell-based, human. The following applies: AD model. As to the method:
(§1) Perinatal tissue derived human stem cell model for Alzheimer's disease (AD) was prepared using proprietary protocols to test the effect of new drug entities. Drug treatment was for 24 h in all the assays.
(§2) Increase in oxidative stress is associated with accumulation of amyloid beta seen in the AD model. Increased oxidative stress and nitric oxide levels lead to apoptosis and evoke cytotoxic effects on neurons.

For assay [2] the test system is unchanged. In words: Glutathione peroxidase / GSH activity, Alzheimer's disease model. Format: cell-based, human. Particulars: AD model; vs neurodegeneration. As to the method: as §1
Alzheimer's disease-related increase in oxidative stress is associated with decrease in the levels of brain antioxidant glutathione (GSH).
(Statistical analysis: results are expressed in mean±SD. One-way ANOVA followed by Dunnett's post hoc test was performed to compare all columns vs neurodegeneration (p<0.05; *p<0.05, **p<0.001, ***p<0.0001, ns=non-significant, n=3).)

Assay [3] shares this test system. In words: Mitochondrial membrane potential by TMRE assay, Alzheimer's disease model. It is filed as cell-based, human. Particulars: AD model; probucol 20 μM, SPQ 10 μM, HA-1 10 μM, rivastigmine 2 μM, 24 hours. As to the method: as §1
Aβ plaques are sources of toxicity that lead to severe structural and functional abnormalities in mitochondria in Alzheimer's disease. For assessing the changes in the electrophysiology and functional changes in the mitochondrial membrane potential, we used TMRE (tetramethylrhodamine ethyl ester) for quantifying changes in mitochondrial membrane potential in live cells by fluorimetry.

Assay [4] has as its system Neurodegenerated cells (perinatal tissue derived human stem cell model for Alzheimer's disease). The assay is described as follows: Lactate dehydrogenase (LDH) assay, in vitro model of Alzheimer's disease. Format: cell-based. Particulars: probucol 20 μM, SPQ 10 μM, HA-1 10 μM, rivastigmine 2 μM, 24 hours; compared to ND cells. As to the method: as §1
LDH leakage is a well characterised marker of cellular membrane damage and increase in indicative of lactate deficit, is a hallmark of AD.

The subject of assay [5] is Neurodegenerated cells (Alzheimer's disease model). In words: ROS (reactive oxygen species) assay, Alzheimer's disease model. Format: cell-based, human. The following applies: AD model. Here is the method:
as §1, §2

Assay [6] shares this test system. In words: Immunocytochemical localization of AD specific and neuronal markers. The following applies: fluorescence micrographs. Format: cell-based, human. As to the method: as §1
For further confirmation and protein localization of the AD specific neurodegenerative markers and neuronal markers, we performed immunolocalization for BACE1 and synapsin respectively.
Fluorescence micrographs of BACE1 positive neuronal cells were obtained and the effects of probucol, SPQ and HA-1 on neurodegeneration model were compared. […] In the AD model, as expected BACE1 accumulation is clearly pronounced.
In the case of synapsin 1, a disruption in expression of synapsin protein in ND cells was observed.

For assay [7] the test system is unchanged. The assay is described as follows: Gene expression analysis by qRT-PCR for neuronal, cholinergic and AD associated markers. Particulars: 24 h drug treatment. It is filed as cell-based, human. As to the method: as §1
For determining the expression of genes involved in AD specific neurodegeneration and neuronal markers, we analysed BACE and chAT (AD and cholinergic markers) and synapsin 1 and neuropilin (neuronal markers).
For orientation: Quantitative PCR measures a nucleic acid by following its amplification.

Assay [8] deals with OC-1 cells. The assay is described as follows: Cobalt chloride hypoxia assay. It is filed as cell-based. The following applies: cells pre-treated with CoCl2 at 100 μM for 24 hours, microscopic examination. Here is the method: This assay is used to determine whether an intervention can reverse hypoxic-induced cell death brought about by cobalt chloride. For this assay, cells are pre-treated with CoCl2 at 100 μM for 24 hours, followed by microscopic examination of cell morphology and viability.

Assay [9] deals with Caspase 3/9 protein. In words: Caspase assay. The following applies: OC-1 cells under stressful, toxic conditions (FIG. 31). It is filed as cell-based. As to the method: The caspase assay was carried as per manufacturer's instructions (abcam, NSW, Australia), as described below.
• Collagen coated cover slip • Fixing agent: 4% paraformaldehyde • Permeabilization agent 0.5% of Tween 20 or trition-X 100 diluted in PBS • Blocking: 1% BSA in PBST may also be used. • PBST: 0.1% Tween 20 in PBS • Primary abs (1:500 in PBS) • Secondary abs (1:1000 in PBS) • Hoechst (Nuclear stain)
First day: Fixation, permeabilize, blocking and add a primary antibody to the cells, as described below:
• Start by aspirating culture medium from each well followed by fixation of the cells with 4% Using 4% paraformaldehyde in PBS pH 7.4 for 10 min at room temperature. (Add one ml in each well). • Shake a plate for a few seconds.
0.5% of Tween 20 or trition-X 100 diluted in PBS. […]
• Make coverslips ready to be mounted onto microscope slides. • Take a clean slide and dispense one drop of antifade mounting medium by slowly from the pipette into the slide. • Carefully remove a coverslip from the well and allow excess wash to drip off and place the cells face down onto the slide. • Clear fingernail polish can be used to seal the coverslip and prevent it from drying out. • Visualized slide under microscope. […]

Assay [10] deals with OC-1 cells. The assay is described as follows: Seahorse bioenergetics experiment (oxygen consumption rate) after cisplatin. It is filed as cell-based. As to the method: Mitochondrial function was analysed by measuring oxygen consumption rate (OCR) using real-time Seahorse Flux Analyser XF 96 (Seahorse Bioscience, USA) with our well-established method (Kovacevic, Bozica, et al. “Novel hydrogel comprising non-ionic copolymer with various concentrations of pharmacologically active bile acids for cellular injectable gel.” Colloids and Surfaces B: Biointerfaces (2022): 113014). Briefly, the first injection was with media without glucose, with subsequent ATP synthase inhibitor oligomycin and FCCP (carbonyl cyanide-p-trifluoromethoxy phenylhydrazone) and the final injection was complex […] inhibitors Rotenone+antimycin A 77. The result was automatically generated and analysed by the wave software. The OC-1 cells were pre-treated with cisplatin at three different concentrations (20, 30 and 40 μM) for 24 or 48 hours to induce cytotoxicity prior to the seahorse bioenergetics assays.

For assay [11], the system named is Neurodegenerated cells (Parkinson's disease model). The assay is described as follows: Adenosine triphosphate (ATP) assay, Parkinson's disease model. Particulars: PD model; probucol 20 μM, SPQ 10 μM, HA-1 10 μM, L-Dopa 50 μM, 24 hours. It is filed as cell-based, human. As to the method:
(§3) Perinatal tissue derived human stem cell model for Parkinson's disease (PD) was prepared using proprietary protocols to test the effect of new drug entities. Drug treatment was for 24 hours in all the assays.
Impaired energy metabolism and reduced ATP levels are common features of PD. Using the stem cell derived PD model, we measured ATP levels in drug treated (probucol, SPQ and HA-1 and L-Dopa) cells and compared with neurodegenerated (ND) cells.
(§4) Neurodegenerated cells were incubated with probucol (20 μM), SPQ (10 μM), HA-1 (10 μM) and L-Dopa (50 μM) for 24 hours (p<0.05; *p<0.05, **p<0.001, ***p<0.0001, ns=non-significant, n=3).

Assay [12] has the same test system. The assay is described as follows: Immunocytochemical localization of PD specific and neuronal markers. Format: cell-based, human. The following applies: fluorescence micrographs. Here is the method: as §3
For further confirmation and protein localization of neuronal, dopaminergic and PD specific neurodegenerative markers, we performed immunolocalization for synapsin I, Nurr1, TH and α-synuclein respectively.
Fluorescence micrographs of synapsin 1 positive neuronal cells were obtained and the effects of probucol, SPQ and HA-1 on neurodegeneration model with L-Dopa as positive control were compared.
Fluorescence micrographs of Nurr1 positive dopaminergic neuronal cells were obtained and the effects of probucol, SPQ and HA-1 on neurodegeneration model with L-Dopa as positive control were compared.
Fluorescence micrographs of TH positive dopaminergic neuronal cells were obtained and the effects of probucol, SPQ and HA-1 on neurodegeneration model with L-Dopa as positive control were compared.
Fluorescence micrographs of α-synuclein immunolocalization were obtained and the effects of probucol, SPQ and HA-1 on neurodegeneration model with L-Dopa as positive control were compared.

Assay [13] shares this test system. The assay is described as follows: Gene expression analysis by qRT-PCR for neuronal, dopaminergic and PD associated markers. The following applies: 24 hours drug treatment. Format: cell-based, human. Here is the method: as §3
Gene expression levels of mature neuronal marker (Synapsin I), dopaminergic markers (Nuclear receptor related 1 (Nurr1), Dopamine transporter (DAT) and Tyrosine hydroxylase (TH)), and PD associated marker (α-synuclein) were analysed to determine the effect of probucol, SPQ, HA-1 and L-Dopa.
(A) Synapsin I, (B) Nurr1, (C) DAT, (D) TH and (E) α-synuclein. (p<0.05; *p<0.05, **p<0.001, ***p<0.0001, n=3).

The subject of assay [14] is Neurodegenerated cells (perinatal tissue derived human stem cell model for Parkinson's disease). The assay is described as follows: Mitochondrial membrane potential by TMRE assay, Parkinson's disease model. Format: cell-based. Particulars: PD model; probucol 20 μM, SPQ 10 μM, HA-1 10 μM, L-Dopa 50 μM, 24 hours. Here is the method: as §3
Dysfunctional mitochondria and alterations in the mitochondrial membrane potential promote neurodegeneration seen in Parkinson's disease. For assessing the changes in mitochondrial membrane potential, we used TMRE (tetramethylrhodamine ethyl ester) to quantify the changes in live cells by fluorimetry.
as §4

The test system of assay [15] is Neurodegenerated cells (Parkinson's disease model). The assay is described as follows: ROS assay, Parkinson's disease model. It is filed as cell-based, human. The following applies: PD model. As to the method:
as §3
(§5) Increase in oxidative stress associated with accumulation of α-synuclein plays a central role in disease progression. Nitric oxide enhances the aggregation of α-synuclein and accelerates disease progression. Increased oxidative stress and nitric oxide levels lead to apoptosis and evoke cytotoxic effects on neurons.

Assay [16] has the same test system. In words: Glutathione peroxidase / GSH activity, Parkinson's disease model. Format: cell-based, human. The following applies: PD model; vs neurodegeneration. Here is the method:
as §3
Parkinson's disease-related increase in oxidative stress is associated with mitochondrial dysfunction and subsequent decrease in the levels of brain antioxidant glutathione (GSH).
(Statistical analysis: Results are expressed in mean±SD. One-way ANOVA followed by Dunnett's post hoc test was performed to compare all columns vs neurodegeneration (p<0.05; *p<0.05, **p<0.001, ***p<0.0001, ns=non-significant, n=3).)

The test system is the same in assay [17]. The assay is described as follows: Greiss (nitric oxide) assay, Parkinson's disease model. Format: cell-based, human. The following applies: PD model. Here is the method:
as §3, §5

With `CCN(C)C(=O)Oc1cccc([C@H](C)N(C)C)c1` [rivastigmine], the nitric oxide level entry in assay [1] was “reduction of ROS and NO levels”. Besides, the “glutathione (GSH) activity” value in [2] is “increase in the anti-oxidant GSH activity”. Further, the “mitochondrial membrane potential (TMRE)” value in assay [3] was “maintain the mitochondrial membrane potential”. For the same compound, the “LDH activity / LDH release” value in [4] is “decreased significantly LDH activity”. Moreover, the “intracellular reactive oxidative stress (ROS)” value in assay [5] is “reduction of ROS and NO levels”. Also, the “accumulation of BACE1 protein (immunolocalization)” value in assay [6] is given as “least expression”. In addition, in assay [7], the “BACE1 gene expression (qRT-PCR)” value is “decrease the level of beta secretase 1 (BACE1)” and the “ChAT gene expression (qRT-PCR)” value was “increase the level of choline acetyltransferase (ChAT)”.

Turning to `CC(=O)O[C@@H]1CC[C@@]2(C)C(C1)C[C@@H](OC(C)=O)[C@H]1[C@@H]3CC[C@H]([C@H](C)CCC(=O)Oc4c(C(C)(C)C)cc(SC(C)(C)Sc5cc(C(C)(C)C)c(O)c(C(C)(C)C)c5)cc4C(C)(C)C)[C@@]3(C)CC[C@@H]12` (stereo in doubt) [HA-2, 2,6-di-tert-butyl-4-((2-((3,5-di-tert-butyl-4-hydroxyphenyl)thio)propan-2-yl)thio)phenyl (4R)-4-[(3R,5R,7R,8R,9S,10S,13R,14S,17R)-3,7-diacetoxy-10,13-dimethyl-2,3,4,5,6,7,8,9,11,12,14,15,16,17-tetradecahydro-1H-cyclopenta[a]phenanthren-17-yl]pentanoate], the cell morphology entry in [8] is on record as “optimal morphology”. Moreover, the “protection against programmed cell death (caspase-3 activation) / viable cell population” value in assay [9] is recorded as “least amount of cell death”. Also, the “oxygen consumption rate (OCR)” value is on record as “most potent in reversing the cisplatin-induced cytotoxicity” in assay [10] (OC-1 cells after 24 hours exposure to cisplatin (20, 30 and 40 μM)); “significantly reverse the cytotoxic effects of cisplatin” in assay [10] (OC-1 cells after 48 hours exposure to cisplatin (20, 30 and 40 μM)).

Turning to `N[C@@H](Cc1ccc(O)c(O)c1)C(=O)O` [L-Dopa, Levodopa], the ATP level result in [11] is “Enhanced increase in ATP levels”. In addition, the “accumulation of α-synuclein (immunolocalization)” value in assay [12] is “least expression”. Also, the “TH gene expression (qRT-PCR)” value in assay [13] was “clearly upregulated”. The “mitochondrial membrane potential (TMRE)” value in [14] is recorded as “maintain the mitochondrial membrane potential”. Further, the “intracellular reactive oxidative stress (ROS)” value in assay [15] was “reduction of ROS and NO levels”. Besides, the “glutathione (GSH) activity” value in assay [16] was “increase in the GSH activity”. Besides, in assay [17], the nitric oxide level result is “reduction of ROS and NO levels”.
